The record followed here is US20230148214A1, “INDAZOLES AND AZAINDAZOLES AS LRRK2 INHIBITORS” (ESCAPE Bio, Inc., priority 2020, published 2023).

The target of one assay is T1, LRRK2 WT (Homo sapiens, UniProt Q5S007).
T1 construct: purchased Life Technologies PR8604B
Put plainly: LRRK2 Kinase Activity Assay (LanthaScreen TR-FRET), wild type. As to conditions: recombinant wild type LRRK2, 25 μM ATP, 400 nM LRRKtide, 60 min; class symbols. Format: biochemical. In outline:
(§1)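 IC50 fitted to the compound-dependent loss of TR-FRET signal. Each kinase form, wild type or G2019S, phosphorylated the fluorescein-tagged ERM-derived LRRKtide in the presence of ATP and compound dilutions over 60 min at room temperature; quench contained 10 mM EDTA and 2 nM anti-pERM antibody (final).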

Another assay concerns the target T2, LRRK2 G2019S (Homo sapiens, UniProt Q5S007, G2019S).
T2 construct: purchased Life Technologies PV4881
Put plainly: LRRK2 Kinase Activity Assay (LanthaScreen TR-FRET), G2019S. Format: biochemical. As to conditions: recombinant G2019S-LRRK2, 25 μM ATP, 400 nM LRRKtide, 60 min; class symbols. In outline: as §1

Where only a bound is given, the exact number is not on record here.

T1 sequence (Q5S007 whole entry): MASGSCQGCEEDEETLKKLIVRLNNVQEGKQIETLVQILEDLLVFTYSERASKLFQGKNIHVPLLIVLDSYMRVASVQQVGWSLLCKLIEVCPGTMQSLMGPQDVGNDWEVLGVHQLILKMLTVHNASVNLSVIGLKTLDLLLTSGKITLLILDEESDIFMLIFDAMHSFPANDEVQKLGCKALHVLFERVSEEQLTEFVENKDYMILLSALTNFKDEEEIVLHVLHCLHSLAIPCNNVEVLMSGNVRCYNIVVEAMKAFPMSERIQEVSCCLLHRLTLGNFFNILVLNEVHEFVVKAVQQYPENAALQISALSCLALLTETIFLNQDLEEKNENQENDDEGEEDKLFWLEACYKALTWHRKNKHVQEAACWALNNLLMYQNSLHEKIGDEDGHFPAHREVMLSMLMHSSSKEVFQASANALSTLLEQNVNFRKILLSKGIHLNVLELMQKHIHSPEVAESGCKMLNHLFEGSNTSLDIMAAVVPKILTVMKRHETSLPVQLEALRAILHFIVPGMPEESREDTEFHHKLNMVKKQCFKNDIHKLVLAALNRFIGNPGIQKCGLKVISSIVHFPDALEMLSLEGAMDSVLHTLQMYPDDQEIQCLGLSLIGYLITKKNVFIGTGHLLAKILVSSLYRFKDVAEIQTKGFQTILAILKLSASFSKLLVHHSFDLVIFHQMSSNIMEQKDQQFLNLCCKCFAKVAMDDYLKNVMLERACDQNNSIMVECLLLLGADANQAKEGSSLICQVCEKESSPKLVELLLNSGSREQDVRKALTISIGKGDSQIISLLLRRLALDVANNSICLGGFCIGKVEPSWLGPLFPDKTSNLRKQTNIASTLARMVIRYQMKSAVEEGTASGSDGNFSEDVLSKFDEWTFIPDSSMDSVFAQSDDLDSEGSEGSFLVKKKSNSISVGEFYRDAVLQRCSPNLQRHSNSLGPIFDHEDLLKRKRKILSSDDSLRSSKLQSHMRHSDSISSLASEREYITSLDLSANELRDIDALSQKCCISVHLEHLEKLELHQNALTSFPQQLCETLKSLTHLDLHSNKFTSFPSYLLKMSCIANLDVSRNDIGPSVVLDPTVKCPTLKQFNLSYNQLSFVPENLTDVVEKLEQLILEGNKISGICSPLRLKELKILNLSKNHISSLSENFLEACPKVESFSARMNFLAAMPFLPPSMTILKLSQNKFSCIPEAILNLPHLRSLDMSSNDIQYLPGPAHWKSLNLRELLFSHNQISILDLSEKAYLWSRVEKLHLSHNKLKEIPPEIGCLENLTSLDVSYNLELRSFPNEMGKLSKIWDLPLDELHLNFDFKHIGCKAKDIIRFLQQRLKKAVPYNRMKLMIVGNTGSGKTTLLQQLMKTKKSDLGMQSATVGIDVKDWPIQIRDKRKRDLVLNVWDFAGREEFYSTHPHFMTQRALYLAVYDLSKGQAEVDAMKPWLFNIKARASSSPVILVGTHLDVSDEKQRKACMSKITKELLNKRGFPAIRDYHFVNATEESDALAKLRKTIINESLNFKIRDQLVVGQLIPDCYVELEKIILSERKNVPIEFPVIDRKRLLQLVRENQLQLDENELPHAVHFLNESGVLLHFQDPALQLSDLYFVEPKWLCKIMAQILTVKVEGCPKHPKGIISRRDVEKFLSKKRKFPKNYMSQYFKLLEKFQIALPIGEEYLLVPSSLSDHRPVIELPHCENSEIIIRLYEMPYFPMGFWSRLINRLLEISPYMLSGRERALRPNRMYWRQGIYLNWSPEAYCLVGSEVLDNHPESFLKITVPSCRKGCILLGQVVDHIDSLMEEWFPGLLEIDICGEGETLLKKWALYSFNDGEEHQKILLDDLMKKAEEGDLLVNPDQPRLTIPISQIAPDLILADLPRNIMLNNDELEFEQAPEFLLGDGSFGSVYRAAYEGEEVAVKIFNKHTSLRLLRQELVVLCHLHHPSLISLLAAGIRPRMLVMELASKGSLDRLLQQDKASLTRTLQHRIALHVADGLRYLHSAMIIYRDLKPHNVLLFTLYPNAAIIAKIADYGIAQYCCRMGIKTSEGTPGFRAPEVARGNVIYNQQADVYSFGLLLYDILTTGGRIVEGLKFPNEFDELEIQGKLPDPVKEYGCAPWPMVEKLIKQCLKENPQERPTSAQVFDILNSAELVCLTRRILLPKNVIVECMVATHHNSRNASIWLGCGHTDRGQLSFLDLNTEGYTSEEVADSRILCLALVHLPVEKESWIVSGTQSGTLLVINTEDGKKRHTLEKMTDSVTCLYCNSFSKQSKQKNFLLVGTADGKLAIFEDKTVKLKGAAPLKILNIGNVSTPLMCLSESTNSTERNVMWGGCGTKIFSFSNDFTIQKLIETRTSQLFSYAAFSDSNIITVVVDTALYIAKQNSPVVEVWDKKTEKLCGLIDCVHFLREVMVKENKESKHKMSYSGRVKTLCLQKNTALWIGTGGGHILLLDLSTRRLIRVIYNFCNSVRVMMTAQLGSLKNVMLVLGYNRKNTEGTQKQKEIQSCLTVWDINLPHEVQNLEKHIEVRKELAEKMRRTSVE
T2 sequence (Q5S007 whole entry G2019S): as the sequence (Q5S007 whole entry) above, with G2019S counted along it

In the case of `Cc1n[nH]c2ccc(O[C@H]3CCc4cc(C#N)ccc43)cc12` (single isomer, unassigned) [Example 1, enantiomer 1, 1-((3-Methyl-1H-indazol-5-yl)oxy)-2,3-dihydro-1H-indene-5-carbonitrile], the values for the concentration for half-maximal inhibition (IC50) on LRRK2 WT and at LRRK2 G2019S were 100 to 1000 nM and less than 100 nM, respectively.

Consider `Cc1n[nH]c2ccc(O[C@H]3CCc4cc(C#N)ccc43)cc12` (single isomer, unassigned) [Example 1, enantiomer 2, 1-((3-Methyl-1H-indazol-5-yl)oxy)-2,3-dihydro-1H-indene-5-carbonitrile], for which the results for the IC50 at LRRK2 WT and on LRRK2 G2019S were 100 to 1000 nM and less than 100 nM, respectively.

For `N#Cc1cnc2c(c1)CCC[C@@H]2Oc1ccc2[nH]nc(-c3cnoc3)c2c1` (single isomer, unassigned) [Example 2, enantiomer 1, 8-((3-(Isoxazol-4-yl)-1H-indazol-5-yl)oxy)-5,6,7,8-tetrahydroquinoline-3-carbonitrile], the 50% inhibitory concentration (IC50) on LRRK2 WT and on LRRK2 G2019S was less than 100 nM each time.

Consider `N#Cc1ccc2c(c1)CCC2Oc1ccc2[nH]nc(-c3cnco3)c2c1` (single isomer, unassigned) [Example 3, enantiomer 1, 1-((3-(Oxazol-5-yl)-1H-indazol-5-yl)oxy)-2,3-dihydro-1H-indene-5-carbonitrile], for which the IC50 on LRRK2 WT and on LRRK2 G2019S was less than 100 nM throughout.

Turning to `N#Cc1ccc2c(c1)CC[C@@H]2Oc1ccc2[nH]nc(-c3cnn(C(F)F)c3)c2c1` (single isomer, unassigned) [Example 4, enantiomer 1, 1-((3-(1-(Difluoromethyl)-1H-pyrazol-4-yl)-1H-indazol-5-yl)oxy)-2,3-dihydro-1H-indene-5-carbonitrile], the figures for the IC50 on LRRK2 WT and at LRRK2 G2019S were 100 to 1000 nM and less than 100 nM, respectively.

On to `N#Cc1ccc2c(c1)CC[C@@H]2Oc1ccc2[nH]nc(-c3cnoc3)c2c1` (single isomer, unassigned) [Example 5, enantiomer 1, 1-((3-(Isoxazol-4-yl)-1H-indazol-5-yl)oxy)-2,3-dihydro-1H-indene-5-carbonitrile], for which the IC50 at LRRK2 WT and on LRRK2 G2019S was less than 100 nM in each case.

Take `N#Cc1ccc2c(c1)CCC[C@@H]2Nc1ccc2[nH]nc(-c3cnoc3)c2c1` (single isomer, unassigned) [Example 6, enantiomer 1, 5-((3-(Isoxazol-4-yl)-1H-indazol-5-yl)amino)-5,6,7,8-tetrahydronaphthalene-2-carbonitrile]: the 50% inhibitory concentration (IC50) at LRRK2 WT and at LRRK2 G2019S was less than 100 nM in each case.

With `N#Cc1ccc2c(c1)CCC[C@@H]2Nc1ccc2[nH]nc(-c3cnoc3)c2c1` (single isomer, unassigned) [Example 6, enantiomer 2, 5-((3-(Isoxazol-4-yl)-1H-indazol-5-yl)amino)-5,6,7,8-tetrahydronaphthalene-2-carbonitrile], the half-maximal inhibitory concentration (IC50) was 100 to 1000 nM at LRRK2 WT and less than 100 nM at LRRK2 G2019S.

With `N#Cc1cnc2c(c1)CCC[C@@H]2Nc1ccc2[nH]nc(-c3cnoc3)c2c1` (single isomer, unassigned) [Example 7, enantiomer 1, 8-((3-(Isoxazol-4-yl)-1H-indazol-5-yl)amino)-5,6,7,8-tetrahydroquinoline-3-carbonitrile], the IC50 on LRRK2 WT was 1000 to 10000 nM; on LRRK2 G2019S it was 100 to 1000 nM.

Consider `N#Cc1cnc2c(c1)CCC[C@@H]2Nc1ccc2[nH]nc(-c3cnoc3)c2c1` (single isomer, unassigned) [Example 7, enantiomer 2, 8-((3-(Isoxazol-4-yl)-1H-indazol-5-yl)amino)-5,6,7,8-tetrahydroquinoline-3-carbonitrile], for which the IC50 at LRRK2 WT and on LRRK2 G2019S was less than 100 nM each time.

On to `N#Cc1ccc2c(c1)CC[C@@H]2Nc1ccc2[nH]nc(-c3cnoc3)c2c1` (single isomer, unassigned) [Example 8, enantiomer 1, 1-((3-(Isoxazol-4-yl)-1H-indazol-5-yl)amino)-2,3-dihydro-1H-indene-5-carbonitrile], for which the 50% inhibitory concentration (IC50) on LRRK2 WT and at LRRK2 G2019S was less than 100 nM throughout.
